Legend:
[1] = tested on: S. aureus, E. coli, P. aeruginosa, C. albicans, and A. brasiliensis; assay: Challenge test in skin lotion formulation, European Pharmacopeia criteria; format: cell-based; details: for European Pharmacopeia two-day and 14-day criteria: skin lotion pH 6.5; for European Pharmacopeia 14-day criteria / European Pharmacopeia two-day criteria: skin lotion; for European Pharmacopeia 14-day criteria: 0.25 wt. % booster with 0.5 wt. % sodium benzoate and 0.66 wt. % benzyl alcohol; for European Pharmacopeia two-day criteria: 0.25 wt. % booster with 0.5 wt. % sodium benzoate and 1 wt. % benzyl alcohol
Protocol: (§1) For the European Pharmacopeia, a “pass” test for efficacy is a two-log reduction for bacteria after two days, a three-log reduction in bacteria after […], a two-log reduction in mold and yeast at 14 days and no increase at 28 days.
Skin Lotion Formulation Experimental—An exemplary, model skin lotion having a pH of 6.5 as set forth below in Table 1 was prepared for testing. The invention is not limited to use in this specific lotion but was used to illustrate the advantages of the invention.
In this example, 3-phenyl propanol was used to enhance the performance of low concentrations of sodium benzoate and benzyl alcohol. This example evaluated boosting performance of 3-phenyl propanol in a skin lotion formulation having a pH of 6.5, the ingredients of which are listed in Table 1. Each formulation contained 0.25 wt. % of sodium benzoate and 0.25 wt. % of benzyl alcohol.
(§2) In this example, EDTA was used to enhance the performance of sodium benzoate and benzyl alcohol in a skin lotion formulation at pH, the ingredients of which are set forth in Table 1. Each formulation contained 0.5 wt. % of sodium benzoate and 0.25 wt. % of EDTA with benzyl alcohol varying up to 1 wt. %. The control was comprised of 0.5 wt. % sodium benzoate and 1 wt. % benzyl alcohol without EDTA.
as §2, with “example, sodium gluconate” for “example, EDTA”, “at pH 6.5,” for “at pH,”, “of sodium gluconate,” for “of EDTA”, “control” for “control was”, “comprised” for “comprised of”, “without sodium gluconate.” for “without EDTA.”
In this example, caprylyl glycol was used to enhance the performance of sodium benzoate and benzyl alcohol in a skin lotion formulation at pH 6.5, the ingredients of which are set forth in Table 1. FIGS. 27 and 28 reflect log reduction data of colony forming units (CFU) of microbe strains exposed to sodium benzoate, benzyl alcohol, and caprylyl glycol concentrations in skin lotion media after two and fourteen days. […] A control was utilized comprising 0.5 wt. % sodium benzoate and 1 wt. % benzyl alcohol without caprylyl glycol.

Pseudomonas aeruginosa = details: tryptic soy broth pH 6.5; with 0.25 wt. % sodium benzoate and 0.25 wt. % benzyl alcohol; two days
Description: (§3) Challenge Testing Methodology—Experimental—Several industry standard testing methodologies exist for evaluating antimicrobial efficacy. Two common examples of such standards include United States Pharmacopeia (USP 51) and European Pharmacopeia (EP) testing methodology. These methodologies are particularly useful in that they have criteria and methodologies distinguishing between oral products, topical products and pharmaceutical products, among others.
In conducting the testing, the compound or product to be evaluated is separated out into individual containers, each being challenged with one of the method-specified microorganisms (S. aureus—ATCC 6538 USP51/EP, E. coli—ATCC 8739 EP, P. aeruginosa—ATCC 9027 USP51/EP, C. albicans—ATCC 10231 USP51/EP, and A. brasiliensis—ATCC 16404 USP51/EP) at a concentration of >1×10^5 CFU/g or ml. The initial concentration of each microorganism is determined by inoculating a control substance and using standard dilution and plating techniques. […] The inoculated broth is held at room temperature and is evaluated at specific intervals. USP-51 evaluates at the 14-day and 28-day intervals. EP evaluates results at 2-day, 7-day, 14-day, and 28-day. […] After a period of incubation (48 hours for bacteria, up to 5 days for yeast and mold) surviving microorganisms are counted, and the log reduction of each microorganism at each interval is reported. […]

[2] = tested on: A. brasiliensis, C. albicans, E. coli, P. aeruginosa, and S. aureus; assay: Challenge test (USP-51 / European Pharmacopeia) in tryptic soy broth, log reduction of CFU; format: cell-based
[3] = tested on: K. aerogenes (ATCC 13048) and P. aeruginosa (ATCC 9027); assay: Challenge test in tryptic soy broth at pH 9.0, log reduction of CFU; format: cell-based; details: 2.5 wt. % alone; tryptic soy broth pH 9.0; up to one week
Description: FIG. 29 reflects log reduction data for colony forming units (CFU) of microbe strains in tryptic soy broth growth media at pH 9.0 up to 28 days.
FIG. 30 reflects log reduction data for colony forming units (CFU) of microbe strains exposed to benzylamine at 2.5 wt. % in tryptic soy broth at pH 9.0 up to one week.
Strains of K. aerogenes (ATCC 13048) and P. aeruginosa (ATCC 9027) were utilized for testing as they are commonly found in many water-based products, including without limitation cosmetics and coatings. These organisms were challenged into the soy broth using the same methods as in the other examples. Time points were selected based on time points from ASTM 2574, which is a method for evaluating antimicrobial efficacy in waterborne emulsion based paints.

[4] = tested on: A. brasiliensis, C. albicans, E. coli, P. aeruginosa, and S. aureus; assay: Challenge test (USP-51 / European Pharmacopeia) in tryptic soy broth, log reduction of CFU; format: cell-based; details: tryptic soy broth pH 6.5
Description: as §3
In conducting the testing, the compound or product to be evaluated is separated out into individual containers, each being challenged with one of the method-specified microorganisms (S. aureus—ATCC 6538 USP51/EP, E. coli—ATCC 8739 EP, P. aeruginosa—ATCC 9027 USP51/EP, C. albicans—ATCC 10231 USP51/EP, and A. brasiliensis—ATCC 16404 USP51/EP) at a concentration of >1×10^5 CFU/g or ml. The initial concentration of each microorganism is determined by inoculating a control substance and using standard dilution and plating techniques. […] The inoculated broth is held at room temperature and is evaluated at specific intervals. USP-51 evaluates at the 14-day and 28-day intervals. EP evaluates results at 2-day, 7-day, 14-day, and 28-day. At each contact time, the inoculated product is chemically neutralized and plated using standard dilution and plating techniques. After a period of incubation (48 hours for bacteria, up to 5 days for yeast and mold) surviving microorganisms are counted, and the log reduction of each microorganism at each interval is reported.
For the European Pharmacopeia, a “pass” test for efficacy is a two-log reduction for bacteria after two days, a three-log reduction in bacteria after […], a two-log reduction in mold and yeast at 14 days and no increase at 28 days. For the USP-51, a two-log reduction in bacteria is required at 14 days and no increase at 28 days. For mold and yeast, USP-51 requires no increase at 14 days and 28 days. “No increase” is defined as a […]. […]
The challenge testing was conducted by a Food and Drug Administration (FDA) certified outside testing lab utilizing standard USP-51 and European Pharmacopeia methodologies as summarized in the Challenge Testing Methodology section above. Antimicrobial efficacy was determined in tryptic soy broth growth media, pH-balanced with sodium hydroxide or hydrochloric acid as required to achieve specific pH ranges. […]
The boosting efficacy of various concentrations of EDTA (0 to 0.5 wt. %, with “0” being a control without the EDTA booster) in tryptic soy broth growth media at pH 6.5 was evaluated against various microbes (A. brasiliensis, C. albicans, E. coli, P. aeruginosa, and S. aureus). […]

A. brasiliensis = assay: Challenge test in tryptic soy broth, log reduction of CFU; format: cell-based; details: with 0.25 wt. % sodium benzoate and 0.25 wt. % benzyl alcohol, 14 and 28 days
Protocol: as §1
Data was reported at 30 minutes, two days, fourteen days and twenty-eight days.
[…] The data was collected at 30 minutes, two days, fourteen days and twenty-eight days.

[5] = tryptic soy broth pH 8, booster at various concentrations with 0.25 wt. % sodium benzoate and 0.25 wt. % benzyl alcohol

Compound: OCCCc1ccccc1 [3-phenyl propanol]
- European Pharmacopeia two-day and 14-day criteria ([1]; 0.35 wt. % booster with 0.25 wt. % sodium benzoate and 0.25 wt. % benzyl alcohol): met the two-day and 14-day criteria

Compound: O=C(O)CN(CCN(CC(=O)O)CC(=O)O)CC(=O)O [EDTA, ethylenediaminetetraacetic acid]
- activity against Pseudomonas aeruginosa (Pseudomonas aeruginosa): particularly good activity
- European Pharmacopeia 14-day criteria [1]: met the 14-day criteria
- European Pharmacopeia two-day criteria [1]: met the two-day criteria
- antimicrobial performance (log reduction of CFU) ([2]; tryptic soy broth pH 6.5, booster 0 to 0.5 wt. % with 0.25 wt. % sodium benzoate and 0.25 wt. % benzyl alcohol, 30 minutes, two, fourteen, twenty-eight days): improved antimicrobial performance
- log reduction as a function of booster concentration ([2]; tryptic soy broth pH 8.0, booster 0 to 0.5 wt. % with 0.25 wt. % sodium benzoate and 0.25 wt. % benzyl alcohol): increased log reduction with increasing concentrations
- antimicrobial performance (log reduction of CFU) [2, 5]: improved antimicrobial performance

Compound: OCc1ccccc1 [benzyl alcohol, reference compound]
- antimicrobial effectiveness (log reduction of CFU) compared to control [3]: exactly the same as for benzylamine

Compound: NCc1ccccc1 [benzylamine]
- antimicrobial effectiveness (log reduction of CFU) compared to control [3]: antimicrobial effectiveness achieved

Compound: CCCCCCC(O)CO (stereo not drawn) [caprylyl glycol]
- antimicrobial boosting potential at lowest use concentration ([4]; 1 wt. % booster with 0.25 wt. % sodium benzoate and 0.25 wt. % benzyl alcohol): outstanding antimicrobial boosting potential
- two-day log reduction ([4]; caprylyl glycol up to 5 wt. %, regardless of concentration, 0.25 wt. % sodium benzoate and 0.25 wt. % benzyl alcohol, two days): two-log reduction achieved against all microbes tested
- European Pharmacopeia two-day and 14-day criteria ([1]; 0.5 wt. % booster with 0.25 wt. % sodium benzoate and 0.25 wt. % benzyl alcohol): met the two-day and 14-day criteria
- antimicrobial performance (log reduction of CFU) [2, 5]: improved antimicrobial performance
- two-day log reduction ([2]; tryptic soy broth pH 8, caprylyl glycol up to 5 wt. %, regardless of concentration, 0.25 wt. % sodium benzoate and 0.25 wt. % benzyl alcohol, two days): two-log reduction achieved against all microbes tested

Compound: O=C([O-])[C@H](O)[C@@H](O)[C@H](O)[C@H](O)CO.[Na+] [sodium gluconate]
- activity against the mold A. brasiliensis (A. brasiliensis; tryptic soy broth pH 6.5): Good activity
- activity against the mold A. brasiliensis (A. brasiliensis; tryptic soy broth pH 8): Particularly good activity
- log reduction as a function of booster concentration ([4]; booster 0 to 0.5 wt. % with 0.25 wt. % sodium benzoate and 0.25 wt. % benzyl alcohol, seen at 14 and 28 days): increased log reduction with increased concentration
- booster strength compared with EDTA ([4]; sodium benzoate/benzyl alcohol combination): not as strong a booster as EDTA
- European Pharmacopeia 14-day criteria [1]: met the 14-day criteria
- European Pharmacopeia two-day criteria [1]: met the two-day criteria
- antimicrobial performance (log reduction of CFU) [2, 5]: improved antimicrobial performance

Reference: US20200305426A1, “BOOSTERS FOR ANTIMICROBIAL, PRESERVATIVE AND BIOCIDAL APPLICATIONS” (EMERALD KALAMA CHEMICAL, LLC, priority 2017, published 2020)
